Results from paper PMC9137552, “Structural Characterization of Two Short Unspecific Peroxygenases: Two Different Dimeric Arrangements” (Antioxidants, 2022).
Read-outs that look alike come from different tables or passages of the source. Each block holds one molecule with its values, some of them ahead of it.

Assays:
[1] = system: T1, rCviUPO; test: initial rates, absorbance at […] nm, Michaelis-Menten fit; assay type: biochemical, Collariella virescens; settings: 1 mM H2O2; 0.1 M acetate pH 3
T1 construct: gene CviUPO; mature enzyme without signal peptide, initial Met added, no tag, codon-optimised in pET23a, E. coli BL21, non-glycosylated; homodimer, monomer 26-27 kDa; known only as recombinant enzyme; short UPO

[2] = system: T1, rCviUPO; test: as above; assay type: biochemical, Collariella virescens; settings: K228stop variant; 1 mM H2O2; pH 4.0 (table note; methods text gives pH 3 or 5)
[3] = system: T2, rMroUPO; test: as above; assay type: biochemical, Marasmius rotula; settings: 5 mM H2O2; 0.1 M acetate pH 4.6
T2 construct: gene MroUPO; mature enzyme without signal peptide, initial Met added, no tag, codon-optimised in pET23a, E. coli BL21, non-glycosylated; homodimer (C227-C227' disulfide), monomer 26-27 kDa; short UPO

[4] = system: T1, rCviUPO; test: as above; assay type: biochemical, Collariella virescens; settings: 1 mM H2O2; pH 4.0 (table note; methods text gives pH 3 or 5); read-out: C235A
[5] = system: T2, rMroUPO; test: as above; assay type: biochemical, Marasmius rotula; settings: 5 mM H2O2; 0.1 M acetate pH 5.0
[6] = system: T3, rCviUPO; settings: read-out: C235A; 1 mM H2O2; 0.1 M acetate pH 4.0
T3 construct: gene CviUPO

[7] = system: T3, rCviUPO; settings: read-out: K228stop; K228stop variant; 1 mM H2O2; 0.1 M acetate pH 4.0
[8] = target: rCviUPO C235A variant (Collariella virescens); test: AUC + other: dynamic light scattering; sedimentation velocity, c(s) distributions (SEDFIT); diffusion coefficients from parallel DLS; molecular mass by the Svedberg equation
[9] = target: rCviUPO K228stop variant (C-terminal tail deletion) (Collariella virescens); test: as above
[10] = target: recombinant unspecific peroxygenase from Collariella virescens (rCviUPO), native (nonmutated) (Collariella virescens); test: SEC; Superdex 75, isocratic elution with 10 mM Tris (pH 7.4), 0.15 M NaCl; masses against standards, compared with SDS-PAGE with mercaptoethanol; P201stop analysed during its last purification step
[11] = target: recombinant unspecific peroxygenase from Collariella virescens (rCviUPO), native (nonmutated) (Collariella virescens); test: AUC + other: dynamic light scattering; sedimentation velocity, c(s) distributions (SEDFIT); diffusion coefficients from parallel DLS; molecular mass by the Svedberg equation
[12] = system: T1, rCviUPO; test: initial rates, absorbance at […] nm, Michaelis-Menten fit; assay type: biochemical, Collariella virescens; settings: K228stop variant; 1 mM H2O2; 0.1 M tartrate pH 5.0
[13] = system: T1, rCviUPO; test: as above; assay type: biochemical, Collariella virescens; settings: 1 mM H2O2; 0.1 M tartrate pH 5.0
[14] = system: T2, rMroUPO; test: as above; assay type: biochemical, Marasmius rotula; settings: 5 mM H2O2; 0.1 M tartrate pH 4.0
[15] = system: T1, rCviUPO; test: as above; assay type: biochemical, Collariella virescens; settings: 1 mM H2O2; 0.1 M tartrate pH 5.0; read-out: C235A
[16] = target: recombinant unspecific peroxygenase from Marasmius rotula (rMroUPO), native (nonmutated) (Marasmius rotula); test: SEC; Superdex 75, isocratic elution with 10 mM Tris (pH 7.4), 0.15 M NaCl; masses against standards, compared with SDS-PAGE with mercaptoethanol; P201stop analysed during its last purification step

- Km [5]: 246 ± 3 µM
- Km [6]: 87 ± 7 µM
- Km [7]: 110 ± 15 µM
Molecule: CCn1c(=NN=c2sc3cc(S(=O)(=O)O)ccc3n2CC)sc2cc(S(=O)(=O)O)ccc21 [ABTS, 2,2′-azino-bis(3-ethylbenzothiazoline-6-sulfonic acid)]

- stoichiometry N [8]: 2
Molecule: rCviUPO C235A variant (enzyme)

- stoichiometry N [9]: 2
Molecule: rCviUPO K228stop variant (C-terminal tail deletion) (domain or fragment)

- stoichiometry N [10]: 2
- stoichiometry N [11]: 2
Molecule: recombinant unspecific peroxygenase from Collariella virescens (rCviUPO), native (nonmutated) (enzyme)

Continued, molecule first:

Molecule: COc1ccc(CO)cc1OC [Veratryl alcohol]
- Km [1]: 2.94 ± 0.16 mM
- Km [2]: 55.3 mM
- Km [3]: 54.2 ± 16.7 µM
- Km [4]: 7.24 ± 0.82 mM

Molecule: COc1cccc(OC)c1O [DMP, 2,6-dimethoxyphenol]
- Km [12]: 3.72 ± 0.25 mM
- Km [13]: 4.93 ± 0.47 mM
- Km [14]: 206 ± 38 µM
- Km [15]: 4.5 ± 0.424 mM

Molecule: recombinant unspecific peroxygenase from Marasmius rotula (rMroUPO), native (nonmutated) (enzyme)
- stoichiometry N [16]: 2
